Test: xn = mol fraction of the nth substance listed
Settings: 101 kPa

CCCC[n+]1ccccc1.O=S(=O)([N-]S(=O)(=O)C(F)(F)F)C(F)(F)F + CCCC[n+]1ccccc1.F[B-](F)(F)F
viscosity [mPa·s]
Settings	303.15 K	313.15 K	323.15 K	333.15 K	343.15 K	353.15 K
x1 = 0.0442	115.3	70.5	46.1	31.9	22.9	17.1
x1 = 0.1119	105	66.2	43.8	30.4	–	–
x1 = 0.2162	–	57.6	38.6	27.3	–	15.2
x1 = 0.3217	82.6	53.1	35.7	25.5	18.7	14.4
x1 = 0.4327	75.7	–	33.3	23.8	17.6	–
x1 = 0.5429	70.2	–	31.8	23.1	17.3	–
x1 = 0.6523	63.1	–	29.8	–	16.4	12.8
x1 = 0.7643	–	39.1	27.7	20.5	15.5	12.1
x1 = 0.8822	54.1	–	25.8	19.2	–	11.5
x1 = 0.9467	52	35	25	18.5	14.1	11.1
x1 = 1	49.4	33.8	–	17.9	13.7	–

CCCC[n+]1ccccc1.F[B-](F)(F)F + CCCC[n+]1ccccc1.O=S(=O)([N-]S(=O)(=O)C(F)(F)F)C(F)(F)F
x2 = 0
Settings	viscosity [mPa·s]
313.15 K	74.8
323.15 K	48.1
333.15 K	33
343.15 K	23.8

— a compilation of properties of binary mixtures (doi:10.1021/je300093r)
